# Laboratory results: PMC9784828, “Antimicrobial Activity of Peptide-Coupled Antisense Peptide Nucleic Acids in Streptococcus pneumoniae” (Microbiology Spectrum, 2022)
# Legend:
# [1] = system: G. mellonella larvae infected with S. pneumoniae TIGR4; test: G. mellonella infection model, bacterial load; format: in vivo, Galleria mellonella; details: 24 h postinfection
# Protocol: To establish the antibacterial effect of PNAs in the invertebrate infection model, we assessed the bacterial loads in infected larvae (Fig. 6). Larvae were infected and subsequently treated with NaCl (mock), 10 nmol CPP-PNA, or levofloxacin (positive control), respectively. From each group, four larvae were homogenized at 24 h postinfection. CFU/larva were determined following serial dilutions of the suspension and plating on selective medium. Treatment with (RXR)4XB-anti-gyrA caused a log CFU reduction of 1 compared to that in the mock-treated larvae. The addition of 1 or 10 μg levofloxacin led to a log CFU reduction of 2 or 6, respectively.
# For determination of bacterial load, larvae were infected and subsequently treated with NaCl (mock), CPP-PNAs, or levofloxacin (positive control). At 24 h after infection, larvae were homogenized. Following serial dilution, the suspension was plated on selective medium (BD Columbia CNA Agar with 5% sheep blood; Becton Dickinson GmbH, Heidelberg, Germany). Agar plates were incubated overnight at 37°C, 5% CO2. CFU/larva was determined by visual inspection. Colony identity was verified on a random basis by colony PCR using ply-specific primers.
# [2] = system: G. mellonella larvae infected with S. pneumoniae TIGR4; test: G. mellonella infection model, larval survival; format: in vivo, Galleria mellonella; details: 7 days; for Survival of infected larvae: 30 min postinfection, mock 19%, n = 40
# Protocol: Antimicrobial efficiency of CPP-antisense PNA conjugates was evaluated in vivo employing a G. mellonella infection and treatment model ([22], [28]). Larvae were infected with S. pneumoniae strain TIGR4 and subsequently treated with 10 nmol CPP-anti-gyrA PNAs. Treatment with levofloxacin served as a positive control. Larval survival was observed over 7 days.
# Larvae of the greater wax moth (G. mellonella) were obtained from Bugs-International GmbH (Irsingen/Unterfeld, Germany). For infection experiments, S. pneumoniae TIGR4 was grown for 7 h in BHI, washed twice in a 0.9% NaCl solution, and suspended in 0.9% NaCl to a final concentration of approximately 1 × 10^8 CFU/mL. Larvae weighing 150 to 200 mg were infected with 1 × 10^6 to 3 × 10^6 CFU/larva. Bacteria were injected into the hemocoel of the larvae between the last two pairs of prolegs using a microapplicator (World Precision Instruments, LLC, Sarasota, FL) and a fine-dosage syringe (Omnican-F, 0.01 to 1 mL, 0.30 × 12 mm; B. Braun AG, Melsungen, Germany). As mock control, 0.9% NaCl (PNA experiment) or 0.9% NaCl/3% DMSO (levofloxacin experiment) was injected. For CPP-PNA treatment, larvae were injected 30 min postinfection with 10 nmol CPP-PNA/larva. For levofloxacin treatment, larvae were injected 30 min postinfection with 1 or 10 μg levofloxacin/larva. Larvae were incubated for 7 days, and survival was monitored daily ([22]).
# [3] = system: Detroit 562 cells infected with S. pneumoniae TIGR4; test: Cell-based infection model, bacterial CFU; set-up: species or system Streptococcus pneumoniae; details: MOI 5, 3 h at 37°C, n = 3
# Protocol: Detroit 562 human pharyngeal epithelial cells were infected with S. pneumoniae TIGR4 at a multiplicity of infection (MOI) of 5. Cells were treated with 20 μM (RXR)4XB-anti-gyrA PNA or scrambled control PNA, respectively. As a positive control, 1 μg levofloxacin, corresponding to 3× MIC, was added. Following incubation for 3 h at 37°C, bacterial CFU counts were determined for CPP-antisense PNA-treated samples and compared to those in nontreated samples and in samples containing scrambled control PNAs (Fig. 4A). Treatment with (RXR)4XB-anti-gyrA caused a log CFU reduction of 1. Addition of levofloxacin led to a log CFU reduction of 2.
# The human pharynx carcinoma epithelial cell line Detroit 562 (ATCC CCL138) was cultivated in Dulbecco’s modified Eagle medium (DMEM)/F12 (1:1) (Thermo Fisher Scientific, Schwerte, Germany) supplemented with 10% fetal bovine serum at 37°C and 5% CO2. Confluent Detroit 562 cells were infected with S. pneumoniae TIGR4 at an MOI of 5. Cultures were treated with 20 μM CPP-PNAs or 1 μg levofloxacin, respectively, and incubated for 3 h at 37°C, 5% CO2. After incubation, the supernatant was collected. Adherent cells were detached with Accutase solution (Merck KGaA, Darmstadt, Germany), collected by centrifugation for 10 min at 4,000 × g, and combined with the supernatant. Cells were pelleted by centrifugation, washed twice with PBS, and suspended in PBS. CFU/well was determined following serial dilution and plating on Todd Hewitt Broth, supplemented with Yeast, (THY) agar plates.
# S. pneumoniae TIGR4 [4] = test: Bacterial killing assay (CFU/mL reduction after 6 h); format: cell-based, Streptococcus pneumoniae; details: TIGR4
# Protocol: The impact of different CPPs on the efficacy of antisense PNAs targeting gyrA and rpoB in S. pneumoniae was tested using an in vitro killing assay ([25]). S. pneumoniae strains were incubated for 6 h with CPP-antisense PNA conjugates. We determined the reduction of bacterial CFU/mL caused by different CPP-coupled antisense PNA constructs compared to an untreated control. Three different CPPs were tested: HIV-1 TAT (TAT), oligolysin (K8), and (RXR)4XB (Table 1). Concentration-dependent bactericidal activity was investigated by treatment of S. pneumoniae TIGR4 in a CPP-antisense PNA conjugate concentration range of 2.5 to 20 μM (Fig. 1).
# After culturing S. pneumoniae strains in BHI, D39 and 19F were diluted to approximately 10^5 CFU/mL in phosphate-buffered saline (PBS):BHI (93%:7%), while TIGR4 was diluted to approximately 10^5 CFU/mL in PBS:BHI (96%:4%). Next, 450-μL volumes of the respective bacterial suspensions, containing approximately 0.5× 10^5 CFU, were transferred to 2-mL reaction tubes. A 50-μL volume of PNA solution was added to a final PNA concentration of 1 to 20 μM or as indicated. Fifty μL H2O served as a mock control. The reaction tubes were incubated for 6 h at 37°C and 7 rpm (Rotor SB3; Stuart, Staffordshire, United Kingdom). The concentration of CPP-PNA that reduced CFU/mL by 50% after 6 h of incubation compared to an untreated control (IC50) was calculated by nonlinear regression analysis using GraphPad Prism software (GraphPad Software, San Diego, CA).
# S. pneumoniae TIGR4 [5] = test: In vitro time-killing assay (killing kinetics); format: cell-based, Streptococcus pneumoniae; details: 10 μM, samples every 2 h up to 12 h, n = 3
# Protocol: The antimicrobial activity kinetics of TAT- and (RXR)4XB-conjugated anti-gyrA PNA constructs in S. pneumoniae TIGR4 were studied using an in vitro time-killing assay. Bacteria were treated with 10 μM CPP-antisense PNAs or scrambled control PNAs (Fig. 2). Samples were collected every 2 h following antisense treatment. CFU/mL was determined by plating of serial dilutions and plotted over time. […] In contrast, (RXR)4XB-conjugated anti-gyrA PNA treatment led to a continuous reduction in S. pneumoniae CFU until complete eradication after 12 h.
# For monitoring of killing kinetics, samples were collected 2 to 12 h post-treatment. Viable cell counts were determined by plating appropriate dilutions on BHI agar plates. CFU were determined by visual inspection following overnight incubation at 37°C under a 5% CO2 atmosphere. At time point 0, the viable cell count corresponded to 1 × 10^5 to 3 × 10^5 CFU/mL.
compound,measurement,setting,value
"C[C@H]1COc2c(N3CCN(C)CC3)c(F)cc3c(=O)c(C(=O)O)cn1c23 [levofloxacin, reference compound]",log CFU reduction of bacterial load compared to mock-treated larvae,[1]; 1 μg levofloxacin,2
same,log CFU reduction of bacterial load compared to mock-treated larvae,[1]; 10 μg levofloxacin,6
same,Survival of infected larvae,[2]; 1 μg levofloxacin/larva (approx. 2.5× MIC),40%
same,Increase of survival rate,[2]; 1 μg levofloxacin/larva,21%
same,Survival of infected larvae,[2]; 10 μg levofloxacin/larva (approx. 25× MIC),74%
same,log CFU reduction in infected Detroit 562 cells,"[3]; 1 μg levofloxacin, corresponding to 3× MIC",2
"KKKKKKKK-eg-tgcattaata [K8-anti-gyrA PNA, Oligolysin (K8) coupled to antisense PNA against gyrA]",Reduction of bacterial CFU/mL compared to untreated control (in words),"S. pneumoniae TIGR4 [4]; 6 h, concentration range 2.5 to 20 μM, n = 5",no reduction of CFU/mL
"RXRRXRRXRRXRXB-eg-aatgattact [(RXR)4XB-anti-gyrA scPNA, (RXR)4XB-coupled scrambled control PNA for anti-gyrA]",log CFU reduction of bacterial load compared to mock-treated larvae,"[1]; 10 nmol CPP-PNA/larva, n = 4 larvae per group, three experiments",no significant changes in the bacterial CFU
same,log CFU reduction in infected Detroit 562 cells,[3]; 20 μM CPP-PNA,No significant changes in bacterial CFU
same,Bacterial counts over time (in words),S. pneumoniae TIGR4 [5],did not cause reduced bacterial counts
"TAT: unconjugated cell-penetrating peptide HIV-1 TAT (48–57) (GRKKRRQRRR; UniProt P04608 48-57, looked up, fragment) [reference compound]",Antibacterial effects of unconjugated CPP (in words),S. pneumoniae TIGR4 [4]; Fig. S3,higher than those of the conjugated peptides
